Laboratory results reported in patent US9408386B2, “Use of succinate dehydrogenase inhibitors (SDHIs) for controlling wood diseases in grape” (BAYER CROPSCIENCE AG, priority 2012, dated 2016).

Tests used:
Assay type in all cases: cell-based
[1] = tested on: several fungi belonging to the community usually found in plants showing Esca symptoms; assay: In vitro mycelium growth test, summary over the Esca fungi community; conditions: at 50 ppm
Method: (§1) This test is carried out on representative fungi found in grape plants showing “Esca” Symptoms
(§2) Formulated products are diluted in sterilized dematerialized water at the desired concentration and added to malt agar medium. Fluopyram and penflufen were used as a […] formulation formulation containing 100 g/l active ingredient (SC 100), Bixafen as a emulsifiable concentrate formulation containing 200 g/l active ingredient (EC 200), and tebuconazole as a oil in water emulsion formulation containing 250 g/l active ingredient (EW 250). The medium containing the product to be tested is poured in 90 mm diameter Petri dishes. Each dish is then inoculated using a 5 mm diameter mycelium plug taken, using a cork borer, from the active growing edge of a colony.
(§3) Inoculated Petri dishes are then incubated at 22° C. with a photoperiod of 12 h. The incubation period corresponds to the time required for the fungus to invade the entire surface of the growth medium. At that time, mycelium growth is evaluated by calculating the mean of two perpendicular measure of the colony diameter. A percentage of efficacy is then calculated (Abbott formula).
(§4) The concentration of 50 ppm corresponds approximately to about 50 g/ha when an application amount of 1000 l water per hectare is used.

[2] = tested on: Phaeoacremonium aleophilum; assay: In vitro mycelium growth test on malt agar medium; conditions: 50 ppm in malt agar, 22° C., colony diameter, Abbott formula
Method: as §1, §2, §3, §4

[3] = tested on: Formitiporia mediteranea; assay: In vitro mycelium growth test on malt agar medium
Method: as §1, §2, §3, §4

[4] = tested on: Eutypa lata; assay: In vitro mycelium growth test on malt agar medium; conditions: 50 ppm in malt agar, 22° C., colony diameter, Abbott formula
Method: as §1, §2, §3, §4

[5] = tested on: Botryosphaeria obtusa; assay: In vitro mycelium growth test on malt agar medium; conditions: 50 ppm in malt agar, 22° C., colony diameter, Abbott formula
Method: as §1, §2, §3, §4

[6] = tested on: Botryosphaeria dothidea; assay: In vitro mycelium growth test on malt agar medium; conditions: 50 ppm in malt agar, 22° C., colony diameter, Abbott formula
Method: as §1, §2, §3, §4

[7] = tested on: Phaemoniella chlamydospora; assay: In vitro mycelium growth test on malt agar medium
Method: as §1, §2, §3, §4

[8] = Formitiporia mediteranea, 50 ppm in malt agar, 22° C., colony diameter, Abbott formula
[9] = Phaemoniella chlamydospora, 50 ppm in malt agar, 22° C., colony diameter, Abbott formula

Structure (SMILES)	reduction of several fungi of the Esca community [1]	In Vitro Efficacy Mycellium** [2]	In Vitro Efficacy Mycellium** ([3]; 50 ppm)	In Vitro Efficacy Mycellium** [4]	In Vitro Efficacy Mycellium** [5]	In Vitro Efficacy Mycellium** [6]	In Vitro Efficacy Mycellium** ([7]; 50 ppm)	In Vitro Efficacy Mycellium** [3, 8]	In Vitro Efficacy Mycellium** [7, 9]
O=C(NCCc1ncc(C(F)(F)F)cc1Cl)c1ccccc1C(F)(F)F [Fluopyram, N-[2-[3-chloro-5-(trifluoromethyl)-2-pyridinyl]ethyl]-2-(trifluoromethyl)benzamide]	significant reduction	35%	10%	61%	65%	55%	59%		
Cc1nn(C)c(F)c1C(=O)Nc1ccccc1C(C)CC(C)C (stereo not drawn) [Penflufen, penflufen]	significant reduction	62%		83%	65%	64%		100%	75%
Cn1cc(C(=O)Nc2ccc(F)cc2-c2ccc(Cl)c(Cl)c2)c(C(F)F)n1 [Bixafen, bixafen]	significant reduction	69%		100%	85%	86%		100%	100%
CC(C)(C)C(O)(CCc1ccc(Cl)cc1)Cn1cncn1 (stereo not drawn) [Tebuconazole, tebuconazole]		100%	100%	100%	100%	100%	100%		
